Reference: US9635855B2, “Polyelectrolyte complexes for biocide enhancement” (priority 2012, dated 2017)

System: Botrytis cinerea
Test: Botrytis cinerea fruit rot on wounded apple, post-harvest spray (Example 2)
Format: in vivo

## C[C@@H]1C/C=C/C=C/C=C/C=C/[C@H](O[C@@H]2O[C@H](C)[C@@H](O)[C@H](N)[C@@H]2O)C[C@@H]2O[C@](O)(C[C@@H](O)C[C@H]3O[C@@H]3/C=C/C(=O)O1)C[C@H](O)[C@H]2C(=O)O [natamycin]
Five and six days after inoculation
  Rot on apples, comparison in words: clearly lower
Two days after inoculation
  Botrytis fruit rot symptoms (in words): did not show any symptoms
